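Exposure lasted 48 hours, with cells grown in 96-well plates and compounds tested at five concentrations. At the GI50, growth is halved. TGI: total growth inhibition.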
Assays:
Assay in all cases: inhibition of tumour cell growth, NCI panel, 48 h
[1] = system: 786-0 renal
[2] = system: A498 renal
[3] = system: A549 NSCLC
[4] = system: ACHN renal
[5] = system: BT-549 breast
[6] = system: CAKI-1 renal
[7] = system: CCRF-CEM leukemia
[8] = system: COLO 205 colon
[9] = system: DU-145 prostate
[10] = system: EKVX NSCLC
[11] = system: HCC-2998 colon
[12] = system: HCT-116 colon
[13] = system: HCT-15 colon
[14] = system: HOP-62 NSCLC
[15] = system: HOP-92 NSCLC
[16] = system: HS 578T breast
[17] = system: HT29 colon
[18] = system: IGROV1 ovarian
[19] = system: K-562 leukemia
[20] = system: KM12 colon
[21] = system: LOX IMVI melanoma
[22] = system: M14 melanoma
[23] = system: MCF7 breast
[24] = system: MDA-MB-231 breast
[25] = system: MDA-MB-435
[26] = system: MOLT-4 leukemia
[27] = system: NCI-H226 lung
[28] = system: NCI-H23 lung
[29] = system: NCI-H460 lung
[30] = system: NCI-H522 lung
[31] = system: NCI/ADR-RES ovarian
[32] = system: OVCAR-3 ovarian
[33] = system: OVCAR-4 ovarian
[34] = system: OVCAR-5 ovarian
[35] = system: OVCAR-8 ovarian
[36] = system: PC-3 prostate
[37] = system: RPMI-8226 leukemia
[38] = system: RXF 393 renal
[39] = system: SF-268 CNS
[40] = system: SF-295 CNS
[41] = system: SF-539 CNS
[42] = system: SK-MEL-2 melanoma
[43] = system: SK-MEL-28 melanoma
[44] = system: SK-MEL-5 melanoma
[45] = system: SK-OV-3 ovarian
[46] = system: SN12C renal
[47] = system: SNB-19 CNS
[48] = system: SNB-75 CNS
[49] = system: SR leukemia
[50] = system: SW-620 colon
[51] = system: T-47D breast
[52] = system: TK-10 renal
[53] = system: U251 CNS
[54] = system: UACC-257 melanoma
[55] = system: UACC-62 melanoma
[56] = system: UO-31 renal

With `O=c1[nH]nc(-c2nn(-c3ccc(Cl)cc3)cc2O)o1` the GI50 [1] was 519 nM, the TGI [1] was 36500 nM and the GI50 [2] was 87 nM. The TGI [2] was 464 nM, the GI50 [3] was 91.3 nM and the TGI [3] was over 100000 nM. It also gave a GI50 [4] of 142 nM, a TGI [4] of over 100000 nM and a GI50 [5] of 19.1 nM. The TGI [5] was 219 nM, the GI50 [6] was 156 nM and the TGI [6] was 13000 nM. It also gave a GI50 [7] of 303 nM, a TGI [7] of over 62100 nM and a GI50 [8] of 3250 nM. It also gave a TGI [8] of over 100000 nM, a GI50 [9] of 56.2 nM and a TGI [9] of 1450 nM. It also gave a GI50 [10] of 92.5 nM, a TGI [10] of 904 nM and a GI50 [11] of 238 nM. For the same molecule, the TGI [11] was 3500 nM, the GI50 [12] was 71.8 nM and the TGI [12] was 927 nM. For the same molecule, the GI50 [13] was 152 nM, the TGI [13] was over 100000 nM and the GI50 [14] was 99 nM. For the same molecule, the TGI [14] was 36000 nM, the GI50 [15] was 280 nM and the GI50 [16] was 61.9 nM. It also gave a TGI [16] of 3160 nM, a GI50 [17] of 2020 nM and a TGI [17] of over 100000 nM. It also gave a GI50 [18] of 117 nM, a TGI [18] of over 100000 nM and a GI50 [19] of 46 nM. It also gave a GI50 [20] of 134 nM, a GI50 [21] of 194 nM and a TGI [21] of over 43300 nM. It also gave a GI50 [22] of 132 nM, a TGI [22] of 13000 nM and a GI50 [23] of 340 nM. It also gave a TGI [23] of over 100000 nM, a GI50 [24] of 4560 nM and a TGI [24] of over 50400 nM. The GI50 [25] was 20.5 nM, the GI50 [26] was 53.7 nM and the TGI [26] was 944 nM. For the same molecule, the GI50 [27] was 133 nM, the TGI [27] was 3730 nM and the GI50 [28] was 108 nM. For the same molecule, the TGI [28] was 673 nM, the GI50 [29] was 42.9 nM and the TGI [29] was over 100000 nM. The GI50 [30] was 696 nM, the TGI [30] was over 100000 nM and the GI50 [31] was 121 nM. For the same molecule, the TGI [31] was 2750 nM, the GI50 [32] was 472 nM and the TGI [32] was 12500 nM. The TGI [33] was over 100000 nM, the GI50 [34] was 499 nM and the TGI [34] was over 100000 nM. For the same molecule, the GI50 [35] was 317 nM, the TGI [35] was over 100000 nM and the GI50 [36] was 401 nM. It also gave a TGI [36] of over 100000 nM, a GI50 [37] of 172 nM and a GI50 [38] of 741 nM. It also gave a TGI [38] of over 72400 nM, a GI50 [39] of 117 nM and a TGI [39] of over 100000 nM. It also gave a GI50 [40] of 51.8 nM, a TGI [40] of over 100000 nM and a GI50 [41] of 74.1 nM. For the same molecule, the TGI [41] was 2240 nM, the GI50 [42] was 536 nM and the TGI [42] was 46200 nM. It also gave a GI50 [43] of 25100 nM, a TGI [43] of over 100000 nM and a GI50 [44] of 201 nM. It also gave a TGI [44] of 1440 nM, a GI50 [45] of 385 nM and a TGI [45] of over 100000 nM. It also gave a GI50 [46] of 119 nM, a TGI [46] of 5770 nM and a GI50 [47] of 187 nM. It also gave a TGI [47] of over 100000 nM, a GI50 [48] of 227 nM and a TGI [48] of over 100000 nM. It also gave a GI50 [49] of 33.4 nM, a TGI [49] of 266 nM and a GI50 [50] of 470 nM. The TGI [50] was over 100000 nM, the GI50 [51] was 221 nM and the TGI [51] was over 100000 nM. The GI50 [52] was 37.6 nM, the TGI [52] was 276 nM and the GI50 [53] was 25 nM. For the same molecule, the TGI [53] was over 100000 nM, the GI50 [54] was 610 nM and the TGI [54] was over 100000 nM. It also gave a GI50 [55] of 166 nM, a TGI [55] of 2820 nM and a GI50 [56] of 331 nM. For the same molecule, the TGI [56] was over 34300 nM.
